How the values were obtained:
Assay in all cases: relative viability (nuclei count vs DMSO), 5 days (fraction); higher = more cells survive
Pictilisib + Linsitinib = compound: CS(=O)(=O)N1CCN(Cc2cc3nc(-c4cccc5[nH]ncc45)nc(N4CCOCC4)c3s2)CC1 [Pictilisib] + C[C@]1(O)C[C@@H](c2nc(-c3ccc4ccc(-c5ccccc5)nc4c3)c3c(N)nccn32)C1 [Linsitinib] (partner 1 µM)
Summary of the method: (§1)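 Nuclei were stained with Hoechst during a one-step fixation (final 0.05% Triton X-100, 1% formaldehyde, 1 ug/ml Hoechst) carried out 5 days after dosing, then counted on 4× images. The cells, lung cancer lines in 1536-well plates, had been dosed by pin tool the day after seeding with one drug alone or a fixed anchor-drug dose plus five library-drug doses (not always all listed) in √10 steps. Relative viability is the nuclei count in treated wells divided by that in vehicle wells, and each value is the median of duplicate plates.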

Pictilisib + Olaparib = compound: CS(=O)(=O)N1CCN(Cc2cc3nc(-c4cccc5[nH]ncc45)nc(N4CCOCC4)c3s2)CC1 [Pictilisib] + O=C(c1cc(Cc2n[nH]c(=O)c3ccccc23)ccc1F)N1CCN(C(=O)C2CC2)CC1 [Olaparib] (partner 8 µM)
Summary of the method: as §1

MK-2206 + Foretinib = compound: NC1(c2ccc(-c3nc4ccn5c(=O)[nH]nc5c4cc3-c3ccccc3)cc2)CCC1 [MK-2206] + COc1cc2c(Oc3ccc(NC(=O)C4(C(=O)Nc5ccc(F)cc5)CC4)cc3F)ccnc2cc1OCCCN1CCOCC1 [Foretinib] (partner 0.25 µM)
Summary of the method: as §1

MK-2206 + Crizotinib = compound: NC1(c2ccc(-c3nc4ccn5c(=O)[nH]nc5c4cc3-c3ccccc3)cc2)CCC1 [MK-2206] + C[C@@H](Oc1cc(-c2cnn(C3CCNCC3)c2)cnc1N)c1c(Cl)ccc(F)c1Cl [Crizotinib] (partner 1 µM)
Summary of the method: as §1

MK-2206 + AZD7762 = compound: NC1(c2ccc(-c3nc4ccn5c(=O)[nH]nc5c4cc3-c3ccccc3)cc2)CCC1 [MK-2206] + NC(=O)Nc1cc(-c2cccc(F)c2)sc1C(=O)N[C@H]1CCCNC1 [AZD7762] (partner 0.2 µM)
Summary of the method: as §1

| Cell Line | relative viability (Pictilisib + Linsitinib; first compound 0.02 µM) | relative viability (Pictilisib + Linsitinib; first compound 0.06325 µM) | relative viability (Pictilisib + Linsitinib; first compound 0.6325 µM) | relative viability (Pictilisib + Linsitinib; first compound 2 µM) | relative viability (Pictilisib + Olaparib; first compound 0.02 µM) | relative viability (Pictilisib + Olaparib; first compound 0.06325 µM) | relative viability (Pictilisib + Olaparib; first compound 0.6325 µM) | relative viability (Pictilisib + Olaparib; first compound 2 µM) | relative viability (MK-2206 + Foretinib; first compound 0.01 µM) | relative viability (MK-2206 + Foretinib; first compound 0.03162 µM) | relative viability (MK-2206 + Foretinib; first compound 0.3162 µM) | relative viability (MK-2206 + Foretinib; first compound 1 µM) | relative viability (MK-2206 + Crizotinib; first compound 0.01 µM) | relative viability (MK-2206 + Crizotinib; first compound 0.03162 µM) | relative viability (MK-2206 + Crizotinib; first compound 0.3162 µM) | relative viability (MK-2206 + Crizotinib; first compound 1 µM) | relative viability (MK-2206 + AZD7762; first compound 0.01 µM) | relative viability (MK-2206 + AZD7762; first compound 0.03162 µM) | relative viability (MK-2206 + AZD7762; first compound 0.3162 µM) | relative viability (MK-2206 + AZD7762; first compound 1 µM) |
| --- | --- | --- | --- | --- | --- | --- | --- | --- | --- | --- | --- | --- | --- | --- | --- | --- | --- | --- | --- | --- |
| A549 | 0.674 | 0.606 | 0.476 | 0.307 | 0.441 | 0.355 | 0.283 | 0.211 | 0.752 | 0.817 | 0.914 | 0.907 | 0.733 | 0.744 | 0.641 | 0.535 | – | – | – | – |
| COR-L23 | 0.914 | 0.886 | 0.878 | 0.387 | 0.316 | 0.319 | 0.337 | 0.327 | 1.1 | 0.959 | 1.12 | 0.948 | 0.69 | 0.691 | 0.796 | 0.693 | – | – | – | – |
| COR-L 105 | 0.882 | 0.933 | 0.819 | 0.486 | 0.667 | 0.697 | 0.734 | 0.549 | 1.08 | 0.856 | 0.984 | 1.06 | 0.789 | 0.798 | 0.782 | 0.598 | – | – | – | – |
| Calu-6 | 0.981 | 1.02 | 0.868 | 0.829 | 0.656 | 0.554 | 0.589 | 0.519 | 0.939 | 0.99 | 0.837 | 0.937 | 0.717 | 0.856 | 0.786 | 0.729 | – | – | – | – |
| EBC-1 | 1.02 | 0.966 | 0.768 | 0.195 | 0.681 | 0.741 | 0.564 | 0.243 | 0.0881 | 0.12 | 0.117 | 0.106 | 0.189 | 0.205 | 0.198 | 0.172 | – | – | – | – |
| IA-LM | 0.482 | 0.7 | 0.757 | 0.249 | 0.952 | 0.987 | 0.792 | 0.516 | 1.06 | 1.11 | 1.07 | 1.19 | – | 0.867 | 0.807 | 0.819 | – | – | – | – |
| NCI-H520 | 0.975 | 1.09 | 0.56 | 0.208 | 0.387 | 0.323 | 0.186 | 0.118 | 0.785 | 1.16 | 0.332 | 0.28 | 0.833 | 0.741 | 0.42 | 0.421 | – | – | – | – |
| NCI-H522 | – | – | – | – | 0.619 | 0.663 | 0.561 | 0.493 | – | – | – | – | – | – | – | – | 0.85 | 0.763 | 0.993 | 0.762 |
| NCI-H661 | 0.527 | 0.428 | 0.455 | 0.233 | 0.85 | 0.746 | 0.815 | 0.563 | 1.01 | 1.09 | 1.01 | 0.986 | 0.952 | 0.911 | 0.809 | 0.961 | – | – | – | – |
| NCI-H1299 | 1.03 | 1.01 | 0.991 | 0.864 | 0.996 | 1.01 | 1.03 | 0.858 | 1.15 | 1.06 | 1.15 | 1.16 | 0.957 | 0.963 | 1.06 | 0.94 | – | – | – | – |
| NCI-H1563 | 1.16 | 1.1 | 0.835 | 0.6 | – | – | – | – | 0.882 | 0.988 | 0.832 | 0.769 | 0.771 | 0.828 | 0.75 | 0.604 | – | – | – | – |
| NCI-H1623 | – | – | – | – | – | – | – | – | 0.844 | 0.958 | 0.795 | 0.832 | – | – | – | – | – | – | – | – |
| NCI-H1648 | – | – | – | – | 0.701 | 0.561 | 0.355 | 0.264 | – | – | – | – | – | – | – | – | 0.657 | 0.481 | 0.797 | 0.855 |
| NCI-H1650 | – | – | – | – | 0.593 | 0.759 | 0.761 | 0.691 | 1.28 | 1.15 | 0.864 | 0.947 | 0.97 | 1.04 | 1.04 | 0.751 | – | – | – | – |
| NCI-H2009 | 1.21 | 1.18 | 1.16 | 0.799 | 0.743 | 0.634 | 0.592 | 0.422 | 1.26 | 1.18 | 1.24 | 1.16 | 1.04 | 1.05 | 1.12 | 1.04 | – | – | – | – |
| NCI-H2023 | 0.508 | 0.414 | 0.208 | 0.264 | 0.521 | 0.451 | 0.354 | 0.134 | 0.943 | 0.972 | 0.922 | 0.722 | 0.614 | 0.686 | 0.481 | 0.387 | – | – | – | – |
| NCI-H2228 | 0.533 | 0.637 | 0.31 | 0.184 | 0.715 | 0.734 | 0.45 | 0.209 | 0.761 | 0.811 | 0.614 | 0.467 | 0.445 | 0.348 | 0.343 | 0.339 | – | – | – | – |
| SK-LU-1 | 1.21 | 1.13 | 0.987 | 0.628 | 0.451 | 0.492 | 0.409 | 0.367 | 0.844 | 0.776 | 0.814 | 0.791 | 0.941 | 0.912 | 0.964 | 0.877 | – | – | – | – |
| SK-MES-1 | 1.02 | 1.01 | 0.836 | 0.456 | 0.881 | 0.654 | 0.474 | 0.296 | 0.893 | 1.06 | 0.886 | 0.84 | 0.953 | 1.02 | 1.04 | 0.816 | – | – | – | – |
| SW 1573 | 0.844 | 0.709 | 0.618 | 0.41 | 0.512 | 0.542 | 0.377 | 0.22 | 0.833 | 1.28 | 0.755 | 0.956 | 0.814 | 0.762 | 0.493 | 0.748 | – | – | – | – |
